From patent US5684151A, “1-arylsulphonyl, arylcarbonyl and 1-arylphosphonyl-3-phenyl-1,4,5,6-tetrahydropyridazines” (priority 1995, dated 1997)
Read-outs that look alike come from different tables or passages of the source.

What was measured:
[1] = molecular target: T1, progestin receptor from rabbit uterus (Oryctolagus cuniculus, UniProt P06186); experiment: Progestin receptor binding (3H-R5020 displacement); conditions: rabbit uterine cytosol, 4° C., 18 h, read-out: IC50: Binding affinity for the progestin receptor from rabbit uterus
T1 construct: Cytosolic progestin receptor were obtained by mixing rabbit uterine tissue with a Tris buffer; from tissue; host or cells: rabbit uterus cytosol
T1 sequence (P06186 whole entry): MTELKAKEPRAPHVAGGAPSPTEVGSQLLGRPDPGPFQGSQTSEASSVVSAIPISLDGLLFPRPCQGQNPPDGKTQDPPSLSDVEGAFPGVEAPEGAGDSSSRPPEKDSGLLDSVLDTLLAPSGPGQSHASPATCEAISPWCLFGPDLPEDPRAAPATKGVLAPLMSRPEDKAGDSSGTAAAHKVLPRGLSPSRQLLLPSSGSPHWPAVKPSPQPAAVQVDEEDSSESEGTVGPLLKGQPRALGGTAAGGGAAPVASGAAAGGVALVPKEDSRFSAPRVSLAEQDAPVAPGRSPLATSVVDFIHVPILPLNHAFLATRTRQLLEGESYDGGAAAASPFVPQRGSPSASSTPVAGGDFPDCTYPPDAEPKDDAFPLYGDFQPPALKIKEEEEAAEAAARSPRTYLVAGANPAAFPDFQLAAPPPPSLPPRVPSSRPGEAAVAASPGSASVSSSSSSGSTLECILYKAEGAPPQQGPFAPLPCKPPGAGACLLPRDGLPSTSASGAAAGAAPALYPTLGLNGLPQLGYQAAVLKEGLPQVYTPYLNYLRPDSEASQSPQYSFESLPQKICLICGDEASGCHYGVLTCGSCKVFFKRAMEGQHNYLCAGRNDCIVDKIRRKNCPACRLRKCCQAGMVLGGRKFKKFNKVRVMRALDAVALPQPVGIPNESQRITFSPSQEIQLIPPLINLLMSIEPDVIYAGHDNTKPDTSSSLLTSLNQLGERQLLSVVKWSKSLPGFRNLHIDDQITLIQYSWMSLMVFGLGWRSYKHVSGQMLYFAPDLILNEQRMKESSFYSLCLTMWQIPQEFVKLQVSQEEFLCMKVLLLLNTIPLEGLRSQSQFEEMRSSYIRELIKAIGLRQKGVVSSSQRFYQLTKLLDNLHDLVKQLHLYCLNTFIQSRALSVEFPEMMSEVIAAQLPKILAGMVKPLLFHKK
How it was run: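 Displacement of the radioligand 3H-R5020 was measured in cytosol from homogenized rabbit uterus (pH 7.4 Tris/EDTA/DTT/molybdate buffer), with compounds at 5% final DMSO and about 18 h at 4 °C. Charcoal removed free ligand, scintillation counting quantified bound ligand, and IC50 was the concentration displacing half.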

[2] = test system: Human T47D breast carcinoma cells; experiment: Ex vivo progestational test (T47D proliferation); format: cell-based; conditions: SC200, 3H-thymidine incorporation
Experimental: The progestational activity of the compounds was accessed by their ability to stimulate proliferation of human breast carcinoma cells. Proliferation was measured as the ability to stimulate ^3 H-thymidine incorporation into these cells in vitro. Human T47D breast carcinoma cells (American Type Tissue Collection #133-HTB) were maintained in media consisting or RPMI 1640 supplemented with 10% fetal bovine serum, 10 ug/ml insulin, 10 U/ml pennicillin, 100 ug/ml streptomycin, and 2 mM L-glutamine. Monolayer cell cultures were trypsinized and washed in assay media consisting of phenol red-free RPMI 1640 supplemented with 5% charcoal-stripped, fetal bovine serum, and the other ingredients listed above. Cells were then plated in a 96-well plate. After a 48-hour incubation period at 37° C., the conditioned media was removed and replaced with fresh media containing test compounds in DMSO (0.1% DMSO final concentration). The cell cultures were incubated for 18 to 20 hours at 37° C. ^3 H-thymidine was then added to each well and the cell cultures were incubated at 37° C. for an additional 4 hours. Labelling was stopped by addition of un labelled thymidine. The cultures were washed twice, trypsinized and then harvested onto a filter mat. Incorporated ^3 -H-thymidine was measured by liquid scintillation counting. Data was expressed as a percent stimulation above control level which was set at 100%. An SC200 value was calculated as the concentration of test material needed to stimulate ^3 H-thymidine incorporation 200% of control.
Aspects of the application of the procedure used are described in the following: C. Christensen, D. Gunter, D. Saunders and V. Malviya, Gynecol. Oncol., 28, 25 (1987); J. Puzas, R. Drivdahl, G. Howard and D. Baylink, Proc. Soc. Exp. Biol. Med., 166, 113 (1981); and I. Keydar, L. Chen, S. Karby, F. Weiss, J. Delarea, M. Raduy, S. Chaitcik and H. Brenner, Eur. J. Cancer, 15, 659 (1979)

rabbit endometrium = experiment: In vivo progestational test (Clauberg Test); parameters: species or system rabbit (immature New Zealand White female); key: Active in Clauberg Assay; Active in McGinty Assay; conditions: oral or parenteral, daily for five days
Experimental: Progestational activity was also measured in vivo by the abiity to stimulate the rabbit endometrium after either oral or parenteral administration.
[…]. Starting on the 7th day, the rabbits were given the test material daily for five days. The rabbits were sacrificed approximately 24 hours after the last administration, and the uteri were excised, trimmed and weighed. Portions of both uterine horns were fixed in 10% neutral formalin, sectioned at 6μ and stained with hematoxylin and eosin. Progestational activity was assessed as described above for the McGinty Test.

[3] = test system: mouse (MC3T3-E1) and human (TE-85) osteoblast-line cells; format: cell-based
How it was run: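 Proliferation was read as ^3H-thymidine (0.4 μCi) uptake during a 4 h pulse, which started 20 h after compound addition. Before dosing, cells sat 24 h in 0.1% FBS. Values are % times control (100%).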

Structure (SMILES) | IC50 [1] | T47D: Concentration to elicit a 200% increase in T47D Human breast cell proliferation [2] | In-vivo: Active in Clauberg Assay (rabbit endometrium) | Osteoblast Cell Proliferation, 3H-thymidine incorporation vs control (100%) ([3]; 10^-6) | Osteoblast Cell Proliferation, 3H-thymidine incorporation vs control (100%) ([3]; 10^-7) | Osteoblast Cell Proliferation, 3H-thymidine incorporation vs control (100%) ([3]; 10^-8) | Osteoblast Cell Proliferation, 3H-thymidine incorporation vs control (100%) ([3]; 10^-9) | Osteoblast Cell Proliferation, 3H-thymidine incorporation vs control (100%) ([3]; 10^-10)
Cc1ccc(S(=O)(=O)N2CCCC(c3ccc4ccccc4c3)=N2)cc1 [Compound 120] | 13.3 nM | 831 | – | – | – | – | – | –
O=S(=O)(/C=C/c1ccc(Cl)cc1)N1CCCC(c2ccc(Cl)c(C(F)(F)F)c2)=N1 [Compound 178] | 5.18 nM | 164 | – | – | – | – | – | –
O=S(=O)(c1cccc(Cl)c1)N1CCCC(c2ccc(Cl)c(Cl)c2)=N1 [Compound 109] | 1.09 nM | 1620 | – | – | – | – | – | –
O=S(=O)(c1ccc(C(F)(F)F)cc1)N1CCCC(c2ccc(Cl)c(Cl)c2)=N1 [Compound 97, 3-(3,4-dichlorophenyl)-1-(4-trifluoromethylbenzenesulphonyl)-1,4,5,6-tetrahydropyridazine] | 0.99 nM | 92 | C | – | – | – | – | –
O=S(=O)(c1ccc(C(F)(F)F)cc1)N1CCCC(c2ccc(Cl)c(C(F)(F)F)c2)=N1 [Compound 125, 3-(4-chloro-3-trifluoromethylphenyl)-1-(4-trifluoromethylbenzenesulphonyl)-1,4,5,6-tetrahydropyridazine] | 6.66 nM | 166 | C | – | – | – | – | –
O=S(=O)(c1cc(Cl)ccc1Cl)N1CCCC(c2ccc(Cl)c(Cl)c2)=N1 [Compound 22, 3-(3,4-dichlorophenyl)-1-(2,5-dichlorobenzenesulphonyl)-1,4,5,6-tetrahydropyridazine] | 0.54 nM | 10000 | – | 86% | 78% | 66% | 59% | 40%
O=S(=O)(c1ccc(I)cc1)N1CCCC(c2ccc3ccccc3c2)=N1 [Compound 119, 3-(naphth-2-yl)-1-(4-iodobenzenesulphonyl)-1,4,5,6-tetrahydropyridazine] | 2.53 nM | 868 | – | – | – | – | – | –
O=S(=O)(/C=C/c1ccccc1)N1CCCC(c2ccc3ccccc3c2)=N1 [Compound 174] | 22.8 nM | 10000 | – | – | – | – | – | –
O=C(c1cc(Cl)cc(Cl)c1)N1CCCC(c2ccc(Cl)c(Cl)c2)=N1 [Compound 219] | 946 nM | 10000 | – | 144% | 171% | 141% | 180% | 178%
O=S(=O)(c1ccccc1)N1CCCC(c2cccc(Cl)c2)=N1 [Compound 95] | 10.2 nM | 10000 | – | – | – | – | – | –
CCCCc1ccc(C2=NN(S(=O)(=O)c3ccc(Cl)cc3)CCC2)cc1 [Compound 73] | 10000 nM | 10000 | – | – | – | – | – | –
O=[N+]([O-])c1cc(S(=O)(=O)N2CCCC(c3ccc(Cl)c(Cl)c3)=N2)ccc1Cl [Compound 111] | 16 nM | 10000 | – | – | – | – | – | –
O=S(=O)(/C=C/c1ccc(Cl)cc1)N1CCCC(c2ccc(Cl)c(Cl)c2)=N1 [Compound 170] | 2.15 nM | 4000 | – | 68% | 98% | 108% | 108% | 108%
CCCCc1ccc(C2=NN(S(=O)(=O)c3cc(Cl)ccc3Cl)CCC2)cc1 [Compound 69] | 10000 nM | 10000 | – | – | – | – | – | –
CCCCc1ccc(C2=NN(S(=O)(=O)c3ccc(C)cc3)CCC2)cc1 [Compound 74] | 10000 nM | 10000 | – | – | – | – | – | –
O=S(=O)(c1cccc(Cl)c1Cl)N1CCCC(c2ccc(Cl)c(Cl)c2)=N1 [Compound 105, 3-(3,4-dichlorophenyl)-1-(2,3-dichlorobenzenesulphonyl)-1,4,5,6-tetrahydropyridazine] | 1.87 nM | 1070 | – | – | – | – | – | –
O=S(=O)(c1cccc2ccccc12)N1CCCC(c2ccc(Cl)cc2)=N1 [Compound 15] | – | 10000 | – | 94% | 108% | 114% | 123% | 123%
O=S(=O)(c1cc(Cl)ccc1Cl)N1CCCC(c2ccc(Cl)c(C(F)(F)F)c2)=N1 [Compound 79, 3-(4-chloro-3-trifluoromethylphenyl)-1-(2,5-dichlorobenzenesulphonyl)-1,4,5,6-tetrahydropyridazine] | 0.9 nM | 10000 | – | – | – | – | – | –
Cc1ccc(S(=O)(=O)N2N=C(c3ccccc3)CC3Cc4ccccc4C32)cc1 (centres unmarked) [Compound 158, 1,4,4a,9a,-Tetrahydro-4-(4-methylbenzenesulfonyl)-2-phenyl-3,4-diazafluorene Hemihydrate] | 3000 nM | – | – | 105% | 102% | 122% | 114% | 119%
COc1ccc(C2=NN(S(=O)(=O)c3ccc(Cl)cc3)CCC2)cc1 [Compound 63] | 118 nM | – | – | 101% | 103% | 99% | 77% | 97%
CCCCc1ccc(C2=NN(S(=O)(=O)c3ccc(I)cc3)CCC2)cc1 [Compound 71] | 10000 nM | – | – | 110% | 114% | 99% | 103% | 98%
O=S(=O)(c1cc(Cl)ccc1Cl)N1CCCC(c2ccc(Cl)cc2)=N1 [Compound 5] | 5.3 nM | – | – | 89% | 106% | 124% | 108% | 114%
O=S(=O)(c1cc(Cl)cc(Cl)c1)N1CCCC(c2ccc(Cl)c(Cl)c2)=N1 [Compound 104] | 0.85 nM | 76 | – | – | – | – | – | –
COc1ccc(C2=NN(C(=O)c3ccc(Br)cc3)CCC2)cc1 [Compound 190] | 100000 nM | – | – | 121% | 135% | 130% | 139% | 158%
